Results reported in patent publication US20120010178A1, “METHODS AND COMPOUNDS FOR TREATMENT OF NEURODEGENERATIVE DISORDERS” (PRESIDENT AND FELLOWS OF HARVARD COLLEGE, priority 2008, published 2012).
Entries after “also recorded” stand apart in the source; their conditions may differ.

Tests used:
SMN [1] = test: High-content fibroblast screen for compounds that modulate SMN level; conditions: for SMN level in fibroblast screen (increase or decrease): human fibroblasts, 2-3 days with compound;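 as to all read-outs here: Anti-SMN immunostaining with confocal imaging of nuclear and cytoplasmic SMN and gem counts, tested at 0.1, 1 and 10 uM, fold change relative to negative control wells on each plate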
Procedure: Human fibroblasts were incubated for 2-3 days with compounds from annotated collections. Cells were fixed and stained with an anti-SMN antibody. Confocal imaging was used to quantify SMN fluorescence in nucleus and cytoplasm and count Gems. Data were collected and subsequently analyzed by clustering compounds by suspected mechanism of action and chemical structure.
Following optimization of assay conditions on day 0, total of 500 human fibroblasts (GM09677 line) per well were seeded in 384-well plates, on day 3 they were treated with compounds (robot CyBio) from the annotated collections and on the 5 day plates were fixed and stained (robot MAPD) with an anti-SMN antibody and secondary antibody conjugated with 448 fluorophore (FIG. 19a). Compounds from the libraries were added in duplicate at three final concentrations of 10, 1 and 0.1 uM.
SMN detection was done on the automated confocal microscope Opera PerkinElmer with separate fluorescent exposures to 488 nM laser for and a UV light source to detect nuclei stained with Hoechst 33258 with a 20× objective.
After scanning on the Opera, an XML file extraction workflow, designed with Inforsense KDE, was used to assemble the data from multiple replicate plates of each HCS experiment including the quantitative parameters described above and chemical identities, chemical concentrations and indications of which wells were used for positive and negative controls. […] The fold-induction of SMN intensity values for each well treated with a library chemical were normalized to the SMN average intensity in multiple negative control wells per plate.
Since it is not known which form of SMN increase is the most essential, hits that scored in a duplicate at least in two different parameters greater than 1.3 fold at any of the three concentrations were selected (FIG. 19d). […] Further, 220 compounds were screened in the absence of anti-SMN primary antibody with the same assay conditions, to filter out the fluorescent compounds.

SMN [2] = test: SMN immunofluorescence quantification (cytoplasm, nucleus, GEMs) in fibroblasts from SMA patients; format: cell-based, human; conditions: for levels of cytoplasmic and nuclear SMN (in words) / Avg. SMN fold increase: SMA patient fibroblasts; for levels of cytoplasmic and nuclear SMN (in words): substance alone; for decrease of basal level of SMN: added to the regular serum media in which cells are maintained, no added PDGF; for Avg. SMN fold increase: human PDGF isoforms
Procedure: Specifically, fibroblasts from patients suffering from SMA were treated with Ionomycin (a channel modulator), Ouabain (a cardiac glycoside and channel modulator), PDGF, SAHA (an HDAC inhibitor), Lactacystin (a proteasome inhibitor) or WIN 55,212-2 (a cannabinoid receptor […] and GPCR ligand) for 72 hours. The cells were fixed with methanol/acetone and stained with Pharmingen BD antibodies, followed by 488 AlexaFluor staining. Images were obtained with 60× lens on Zeiss LSM510 META on an inverted confocal microscope.
For example, fibroblasts from patients suffering from SMA were treated with Ouabain, Digoxin or Lanatoside at a concentration of 0, 2.5 nM, 5 nM, 10 nM, 20 nM, 40 nM, 80 nM, […] for 72 hours. The cells were fixed with methanol/acetone and stained with Pharmingen BD antibodies, followed by 488 AlexaFluor staining. Images were obtained with 60× lens on Zeiss LSM510 META on an inverted confocal microscope.
An assay was established for high-content evaluation of SMN protein level in different cellular compartments after treatment with small molecules. SMN protein was visualized by immunofluorescent staining and multiple fields from each plate well were scanned by an automated confocal Opera microscope. […] For each well, the algorithm generated quantitative parameters representing number of cells, as well as SMN fluorescent intensity per cell in cytoplasm, nucleus, number and intensity of GEMs (FIG. 15). […] During the assay transfer to the robotic platform fixation with the ice cold methanol was technically limited, therefore to preserve the maximum possible window we chose to perform the screen on parental fibroblast with PFA fixation.
For fibroblast assays, human fibroblasts lines GM09677 (derived from patient with SMA type 1 disease) and GM03814 (derived from unaffected parental SMA carriers) were used (Coriell Cell Repositories). […] For secondary assays cells from GM09677 line were used.
Fibroblasts were grown in MEM media (Invitrogen) supplemented with 5% Fetal Bovine Serum (FBS, Invitrogen), 2 mM glutamine and 1% penicillin-streptomycin (100 U/ml) in a presence of 5% CO2 at 37° C. For drug treatments, cells were plated and treated 24 h later with 10 μM MG132 (Biomol International), […] Calpeptin (Biomol International), 10 mM ammonium chloride, 1 μM myristoylated PKI, or vehicle for the designated times.
(§1) Compounds were stored at appropriate temperature and dissolved accordingly to the manufacturers (Tocris, Enzo, EMD and Sigma-Aldrich) in DMSO (Sigma-Aldrich), unless stated otherwise (Monensin Na in EtOH, DMPQ in water). Growth factors and PDGF neutralizing antibodies (R&D Systems) were reconstituted with buffers recommended by the supplier. For generation of the dose curves, 1×10^3 fibroblasts were plated on to 96-well Greiner Senso plates (VWR) and treated with compounds on the second day then fixed and stained at the indicated time points. For GSK inhibitors and performing p-GSK3b(Ser9) detection, two days after plating growth media containing 5% FBS was replaced to the media with FBS reduced down to 0.5%, to starve cells for 72 hours. Addition of the GSK inhibitors was done in 5% FBS enriched media.

SMN [3] = test: Inhibition of PDGF-stimulated SMN increase in fibroblasts by kinase/receptor inhibitors; format: cell-based, human; conditions: for SMN Cytoplam (inhibition of PDGF-stimulated SMN increase) / SMN GEM Intensity (inhibition of PDGF-stimulated SMN increase) / SMN Nuclear (inhibition of PDGF-stimulated SMN increase): inhibitor at the concentration (nM), fibroblast stimulation with PDGF; for PDGF-stimulated SMN increase in presence of inhibitor (in words): SMA patient fibroblasts, PDGF plus inhibitor or neutralizing antibody; for Cell Number (affected by inhibitor): inhibitor at the concentration of the table row, PDGF stimulated fibroblasts; for PDGF-stimulated SMN increase in the cytoplasm in presence of inhibitor (in words) / PDGF-stimulated SMN increase in the nucleus in presence of inhibitor (in words): pre-treatment with p38 inhibitor
Procedure: Fibroblasts from patients suffering from SMA were treated with PDGF at a concentration of 0, 0.3 ng/ml, 0.63 ng/ml, 1.25 ng/ml, 2.5 ng/ml, 5 ng/ml, 10 ng/ml or 20 ng/ml, in the absence or in the presence of 25 uM DMPQ or 25 uM AG-1296 respectively for 72 hours. The levels of both cytoplasmic and nuclear SMN were detected and quantified using the method described in Example 2.
Fibroblasts from patients suffering from SMA were either control treated or treated with PDGF at a concentration of 0, 0.63 ng/ml, 1.25 ng/ml, 2.5 ng/ml, 5 ng/ml, 10 ng/ml or 20 ng/ml, in the absence or in the presence of 50 uM LY294002 or 2 uM P1-103 respectively for 72 hours. The levels of both cytoplasmic and nuclear SMN were detected and quantified using the method described in Example 2.
Fibroblasts from patients suffering from SMA were either control treated or treated with PDGF at a concentration of 0, 0.63 ng/ml, 1.25 ng/ml, 2.5 ng/ml, 5 ng/ml, 10 ng/ml or 20 ng/ml, in the absence or in the presence of 2 uM Papamycin for 72 hours. The levels of both cytoplasmic and nuclear SMN were detected and quantified using the method described in Example x.
A range of concentrations were tested in order not to miss the effects. SMN level were evaluated by Opera Evoteck in each cellular compartment and to assess the cell numbers that are summarized in the Table 3.
as §1, with “media. As previously described, starvation increases levels of constitutively activate GSK3b kinase, allowing to achieve a more dramatic inhibitory effect when GSK inhibitors are added together with growth factors that are also known to inhibit GSK by Ser-9 phosphorylation. […] For all compounds and growth factors control wells received solvent in amount equivalent to the highest concentration of the compound in a dose curve. For PDGF inhibitory studies, cells were pre-treated with kinase inhibitors for 2 hours and PDGF was added with a fresh kinase inhibitor solution and incubated for an additional 3 days.” for “media.”

In the case of `CCCCC/C=C\C/C=C\C/C=C\C/C=C\CCCC(=O)NCCO` [Anandamide], the “SMN level in fibroblast screen (increase or decrease)” value (from here on “SMN level … (increase or decrease)”) (SMN [1]) is reported as “increase SMN”.
`COc1ccc(C[C@H]2NC[C@H](O)[C@H]2OC(C)=O)cc1` [Anysomycin] was tested, and the “concentration at which SMN level was increased” value (SMN [1]; during screening) was 0.1 µM and the “SMN level … (increase or decrease)” value (SMN [1]) was “increase SMN”.
In the case of `COC(=O)C1=C(C)NC(C)=C([N+](=O)[O-])C1c1ccccc1C(F)(F)F` (stereo not shown) [Bay K8644], the “levels of cytoplasmic and nuclear SMN (in words)” value (“levels” for short) (SMN [2]) is reported as “not active”.
In the case of `Cc1c[nH]c(-c2cnc(NCCNc3ccc(C#N)cn3)nc2-c2ccc(Cl)cc2Cl)n1` [CHIR99021], the “levels” value (SMN [2]) is reported as “increase SMN levels; also recorded: Most active compounds”.
`CC(=O)C1=C(O)[C@@H]2[C@H]3c4c[nH]c5cccc(c45)C[C@H]3C(C)(C)N2C1=O` [Cyclopiazonic acid] was tested, and the “levels” value (SMN [2]) was “not active”.
In the case of `C[C@H]1O[C@@H](O[C@H]2[C@@H](O)C[C@H](O[C@H]3[C@@H](O)C[C@H](O[C@H]4CC[C@@]5(C)[C@H](CC[C@@H]6[C@@H]5C[C@@H](O)[C@]5(C)[C@@H](C7=CC(=O)OC7)CC[C@]65O)C4)O[C@@H]3C)O[C@@H]2C)C[C@H](O)[C@@H]1O` [Digoxin], the “SMN level … (increase or decrease)” value (SMN [1]) is reported as “increase SMN”.
With `OCCN(CCO)c1nc(N2CCCCC2)c2nc(N(CCO)CCO)nc(N3CCCCC3)c2n1` [Dipyridamole] the “SMN level … (increase or decrease)” value (SMN [1]) was “increase SMN”.
For `C[C@H]1O[C@@H](O[C@H]2[C@@H](O)C[C@H](O[C@H]3[C@@H](O)C[C@H](O[C@H]4CC[C@@]5(C)[C@H](CC[C@@H]6[C@@H]5CC[C@]5(C)[C@@H](C7=CC(=O)OC7)CC[C@]65O)C4)O[C@@H]3C)O[C@@H]2C)C[C@H](O)[C@@H]1O` [Dititoxin], the “SMN level … (increase or decrease)” value (SMN [1]) was “increase SMN”.
With `O=c1cc(N2CCOCC2)oc2c(-c3ccccc3)cccc12` [LY294002] the “decrease of basal level of SMN” value (SMN [2]) was 40%, the “reduction of SMN” value (SMN [2]; combinatory treatment of 0.5% serum and PI-3 kinase inhibitor, patient cells) was 20% and the “SMN Cytoplam (inhibition of PDGF-stimulated SMN increase)” value (SMN [3]) was 100%. For the same compound, the “SMN GEM Intensity (inhibition of PDGF-stimulated SMN increase)” value (SMN [3]) was 100% and the “SMN Nuclear (inhibition of PDGF-stimulated SMN increase)” value (SMN [3]) was 100%.
With `COc1cccc(-c2cc(=O)c3ccccc3o2)c1N` [PD98059] the “PDGF-stimulated SMN increase in presence of inhibitor (in words)” value (SMN [3]) was “only partially inhibited”, the “SMN Cytoplam (inhibition of PDGF-stimulated SMN increase)” value (SMN [3]) was 20% and the “SMN GEM Intensity (inhibition of PDGF-stimulated SMN increase)” value (SMN [3]) was 20%. The “SMN Nuclear (inhibition of PDGF-stimulated SMN increase)” value (SMN [3]) was 20% and the “Cell Number (affected by inhibitor)” value (SMN [3]) was “Yes”.
For `CO[C@H]1C[C@@H]2CC[C@@H](C)[C@@](O)(O2)C(=O)C(=O)N2CCCC[C@H]2C(=O)O[C@H]([C@H](C)C[C@@H]2CC[C@@H](O)[C@H](OC)C2)CC(=O)[C@H](C)/C=C(\C)[C@@H](O)[C@@H](OC)C(=O)[C@H](C)C[C@H](C)/C=C/C=C/C=C/1C` [Rapamycin], the “SMN Cytoplam (inhibition of PDGF-stimulated SMN increase)” value (SMN [3]) was 80%, the “SMN GEM Intensity (inhibition of PDGF-stimulated SMN increase)” value (SMN [3]) was 80-100% and the “SMN Nuclear (inhibition of PDGF-stimulated SMN increase)” value (SMN [3]) was 80-100%.
`Oc1ccc(-c2nc(-c3ccc(F)cc3)c(-c3ccncc3)[nH]2)cc1` [SB202190] was tested, and the “SMN Cytoplam (inhibition of PDGF-stimulated SMN increase)” value (SMN [3]) was 20%, the “SMN GEM Intensity (inhibition of PDGF-stimulated SMN increase)” value (SMN [3]) was “some” and the “SMN Nuclear (inhibition of PDGF-stimulated SMN increase)” value (SMN [3]) was 0%. The “Cell Number (affected by inhibitor)” value (SMN [3]) was “Yes”, the “PDGF-stimulated SMN increase in the cytoplasm in presence of inhibitor (in words)” value (SMN [3]) was “able to prevent SMN increase induced by PDGF; also recorded: partial inhibition of SMN in the cytoplasm” and the “PDGF-stimulated SMN increase in the nucleus in presence of inhibitor (in words)” value (SMN [3]) was “not in the nucleus; also recorded: leaving nuclear SMN unaffected”.
`C[S+]([O-])c1ccc(-c2nc(-c3ccc(F)cc3)c(-c3ccncc3)[nH]2)cc1` (stereo not shown) [SB203580, 4-(4-Fluorophenyl)-2-(4-methylsulfinylphenyl)-5-(4-pyridyl)-1H-imidazole] was tested, and the “SMN Cytoplam (inhibition of PDGF-stimulated SMN increase)” value (SMN [3]) was 20%, the “SMN GEM Intensity (inhibition of PDGF-stimulated SMN increase)” value (SMN [3]) was “some” and the “SMN Nuclear (inhibition of PDGF-stimulated SMN increase)” value (SMN [3]) was 0%. For the same compound, the “Cell Number (affected by inhibitor)” value (SMN [3]) was “Yes”, the “PDGF-stimulated SMN increase in the cytoplasm in presence of inhibitor (in words)” value (SMN [3]) was “able to prevent SMN increase induced by PDGF; also recorded: partial inhibition of SMN in the cytoplasm” and the “PDGF-stimulated SMN increase in the nucleus in presence of inhibitor (in words)” value (SMN [3]) was “not in the nucleus; also recorded: leaving nuclear SMN unaffected”.
For `CC(=O)O[C@@H]1[C@@H](OC(C)=O)[C@@H](O)[C@H](Oc2c(-c3ccc(O)cc3)oc3cc(O)cc(O)c3c2=O)O[C@H]1C` [SL-0101], the “PDGF-stimulated SMN increase in presence of inhibitor (in words)” value (SMN [3]) was “didn't have an inhibitory effect”, the “SMN Cytoplam (inhibition of PDGF-stimulated SMN increase)” value (SMN [3]) was 20% and the “SMN GEM Intensity (inhibition of PDGF-stimulated SMN increase)” value (SMN [3]) was 20%. The “SMN Nuclear (inhibition of PDGF-stimulated SMN increase)” value (SMN [3]) was 20%.
For `N#CC(=C(/N)Sc1ccccc1N)/C(C#N)=C(\N)Sc1ccccc1N` [U0126], the “PDGF-stimulated SMN increase in presence of inhibitor (in words)” value (SMN [3]) was “only partially inhibited”, the “SMN Cytoplam (inhibition of PDGF-stimulated SMN increase)” value (SMN [3]) was 20-30% ^ and the “SMN GEM Intensity (inhibition of PDGF-stimulated SMN increase)” value (SMN [3]) was 10%. For the same compound, the “SMN Nuclear (inhibition of PDGF-stimulated SMN increase)” value (SMN [3]) was 10% and the “Cell Number (affected by inhibitor)” value (SMN [3]) was “No”.
For DMSO, the “decrease of basal level of SMN” value (SMN [2]) was 20%.
In the case of “FGF2: fibroblast growth factor, RTK ligand”, the “levels” value (SMN [2]) is reported as “increases SMN levels” and the “levels” value (SMN [2]; listed as bFGF) is reported as “active”.
In the case of PDGF-AA rec.: recombinant PDGF-AA, the “Avg. SMN fold increase” value (SMN [2]) is reported as 1.3-1.4 fold.
With PDGF-AB rec.: recombinant PDGF-AB the “Avg. SMN fold increase” value (SMN [2]) was 1.7-1.9 fold.
For Ryanodine, the “levels” value (SMN [2]) was “weak effect”.
